Data published in paper PMC9743095 (Journal of Medicinal Chemistry, 2022).
Like-named read-outs stand apart in the source and are kept apart here.

Columns and labels:
HL-60 = assay: cells; assay type: cell-based; settings: Homo sapiens; for Emax: read-out: MI%; for CC50: read-out: LC50
Experimental: (§1) The assay was contracted and carried out by WuXi AppTec (Shanghai) Co., Ltd. The tumor cell lines CCRF-CEM, HL-60, KG-1, MOLT-4, K562, MV4-11, THP-1, HEL92.1.7, NCI-H929, RPMI-8226, Jurkat, Z138, RL, HS445, HepG2, MCF-7, Bx-PC-3, HT29, MIA PaCa-2, and SW620 were seeded at cell densities of […] 10^3 cells/well in a 96-well plate the day before drug incubation. Then, the plates were incubated for 72 h with the different concentrations of compound to be tested. After the incubation period, 50 μL of MTS was added and the tumor cells were incubated for 4 h at 37 °C. The data were read and collected by a Spectra Max 340 absorbance microplate reader. The compounds were tested in duplicate with nine serial concentrations (3.16-fold titrations with 198 μM as the highest concentration), and the data were analyzed by XLfit software.

HT29 = assay: cells; assay type: cell-based; settings: for MI%: HT29, maximum inhibitory effect over concentration range; for CC50: Homo sapiens, HT-29, 72 h, read-out: lC50
Experimental: as §1

SW620 = assay: cells; assay type: cell-based; settings: for CC50: Homo sapiens, SW-620, 72 h, read-out: LC50; for MI%: SW620, maximum inhibitory effect over concentration range
Experimental: as §1

HEL92.1.7 = assay: cells; assay type: cell-based; settings: for MI%: HEL92.1.7, maximum inhibitory effect over concentration range; for CC50: Homo sapiens, HEL 92.1.7, 72 h, read-out: LC50
Experimental: as §1

NCI-H929 = assay: cells; assay type: cell-based; settings: for CC50: Homo sapiens, NCI-H929, 72 h, read-out: LC50; for MI%: NCI-H929, maximum inhibitory effect over concentration range
Experimental: as §1

K562 = assay: cells; assay type: cell-based; settings: Homo sapiens; for Emax: read-out: MI%; for CC50: read-out: LC50
Experimental: as §1

RPMI-8226 = assay: cells; assay type: cell-based; settings: for CC50: Homo sapiens, RPMI-8226, 72 h, read-out: LC50; for MI%: RPMI-8226, maximum inhibitory effect over concentration range
Experimental: as §1

RL = assay: cells; assay type: cell-based; settings: for CC50: Homo sapiens, 72 h, read-out: LC50; for MI%: maximum inhibitory effect over concentration range
Experimental: as §1

CCRF-CEM = assay: cells; assay type: cell-based; settings: Homo sapiens, 72 h; for Emax: read-out: MI%; for CC50: read-out: LC50
Experimental: as §1

THP-1 = assay: cells; assay type: cell-based; settings: for CC50: Homo sapiens, THP-1, 72 h, read-out: LC50; for MI%: THP-1, maximum inhibitory effect over concentration range
Experimental: as §1

Z138 = assay: cells; assay type: cell-based
Experimental: as §1

MOLT-4 = assay: cells; assay type: cell-based; settings: Homo sapiens; for Emax: read-out: MI%; for CC50: read-out: LC50
Experimental: as §1

KG-1 = assay: cells; assay type: cell-based; settings: Homo sapiens, KG-1, 72 h, read-out: LC50
Experimental: as §1

HepG2 = assay: cells; assay type: cell-based; settings: Homo sapiens; for Emax: read-out: MI%; for CC50: read-out: LC50
Experimental: as §1

HS445 = assay: cells; assay type: cell-based; settings: for MI%: HS445, maximum inhibitory effect over concentration range; for CC50: Homo sapiens, Hs 445, 72 h, read-out: LC50
Experimental: as §1

BxPC-3 = assay: cells; assay type: cell-based; settings: for MI%: BxPC-3, maximum inhibitory effect over concentration range; for CC50: Homo sapiens, BXPC-3, 72 h, read-out: LC50
Experimental: as §1

MCF-7 = assay: cells; assay type: cell-based; settings: Homo sapiens, MCF7, 72 h; for CC50: read-out: LC50; for Emax: read-out: MI%
Experimental: as §1

MIA PaCa-2 = assay: cells; assay type: cell-based; settings: for CC50: Homo sapiens, MIA PaCa-2, 72 h, read-out: LC50; for MI%: MIA PaCa-2, maximum inhibitory effect over concentration range
Experimental: as §1

MV4-11 = assay: cells; assay type: cell-based; settings: for CC50: Homo sapiens, MV4-11, 72 h, read-out: LC50; for MI%: MV4-11, maximum inhibitory effect over concentration range
Experimental: as §1

Jurkat = assay: cells; assay type: cell-based; settings: Jurkat; for CC50: Homo sapiens, 72 h, read-out: LC50; for MI%: maximum inhibitory effect over concentration range
Experimental: as §1

[1] = cited from earlier work

Row | Compound | CC50 (HL-60; HL-60, 72 h) | MI% (HT29) | CC50 (HT29) | CC50 (SW620) | MI% (SW620) | MI% (HEL92.1.7) | CC50 (HEL92.1.7) | CC50 (NCI-H929) | MI% (NCI-H929) | CC50 (K562; K562, 72 h) | CC50 (RPMI-8226) | MI% (RPMI-8226) | CC50 (RL) | MI% (RL) | CC50 (CCRF-CEM) | CC50 (THP-1) | MI% (THP-1) | CC50 (MOLT-4; MOLT-4, 72 h) | CC50 (KG-1) | MI% (HS445) | also measured
1 | CC(=O)O[C@H]1C(=O)[C@@]2(C)[C@H]([C@H](OC(=O)c3ccccc3)[C@]3(O)C[C@H](OC(=O)[C@H](O)[C@@H](NC(=O)c4ccccc4)c4ccccc4)C(C)=C1C3(C)C)[C@]1(OC(C)=O)CO[C@@H]1C[C@@H]2O [PTX, paclitaxel, reference compound] | 0.004 µM | 75% | 0.004 µM | 0.02 µM | 96% | 83% | 0.02 µM | 0.003 µM | 82% | 0.008 µM | 0.003 µM | 91% | 0.003 µM | 83% | 0.003 µM | 0.03 µM | 72% | 0.002 µM | 0.07 µM | 74% | Emax (HL-60; 72 h, HL-60, maximum inhibitory effect over concentration range): 96%; Emax (K562; 72 h, K562, maximum inhibitory effect over concentration range): 94%; Emax (CCRF-CEM; maximum inhibitory effect over concentration range): 95%; CC50 (Z138; Homo sapiens, Z-138, 72 h, read-out: LC50): 0.002 µM; MI% (Z138; Z138, maximum inhibitory effect over concentration range): 99%; Emax (MOLT-4; 72 h, MOLT-4, maximum inhibitory effect over concentration range): 97%; Emax (HepG2; 72 h, HepG2, maximum inhibitory effect over concentration range): 54%; CC50 (HS445): 0.01 µM; MI% (BxPC-3): 42%; CC50 (BxPC-3): > 0.5 µM; CC50 (MCF-7): 0.003 µM; Emax (MCF-7; MCF-7, maximum inhibitory effect over concentration range): 79%; CC50 (MIA PaCa-2): 0.002 µM; MI% (MIA PaCa-2): 87%; CC50 (MV4-11): 0.01 µM; MI% (MV4-11): 99%; CC50 (Jurkat): 0.005 µM; MI% (Jurkat): 97%
2 | C[C@H](N[P@@](=O)(OC[C@@H]1C[C@@H](O)[C@H](n2cnc3c(N)ncnc32)O1)Oc1ccccc1)C(=O)OCc1ccccc1 [Rp-7a] | 8.7 µM | 97% | 16 µM | 29 µM | 82% | 98% | 11 µM | 19 µM | 97% | 2.6 µM | 25 µM | 90.8% | 4 µM | 96.8% | 1.86 µM | 35 µM | 91% | 0.57 µM | 14 µM | 99% | Emax (HL-60; HL-60, 72 h): 100%; Emax (K562; K562, 72 h): 95%; Emax (CCRF-CEM): 97%; Emax (MOLT-4; MOLT-4, 72 h): 98%; CC50 (HepG2; HepG2, 72 h): 32 µM; Emax (HepG2; HepG2, 72 h): 78%; CC50 (HS445): 42 µM; MI% (BxPC-3): 71%; CC50 (BxPC-3): 74 µM; CC50 (MCF-7): 2.94 µM; Emax (MCF-7): 97%; CC50 (MIA PaCa-2): 14 µM; MI% (MIA PaCa-2): 96%; CC50 (MV4-11): 0.98 µM; MI% (MV4-11): 100%; CC50 (Jurkat): 2.82 µM; MI% (Jurkat): 97%
3 | C[C@H](N[P@](=O)(OC[C@@H]1C[C@@H](O)[C@H](n2cnc3c(N)ncnc32)O1)Oc1ccccc1)C(=O)OCc1ccccc1 [Sp-7a] | 11 µM | 95% | 25 µM | 35 µM | 87% | 100% | 11 µM | 16 µM | 94% | 3 µM | 19 µM | 86.8% | 2.64 µM | 92.6% | 2.04 µM | 66 µM | 69% | 0.43 µM | 18 µM | 75% | Emax (HL-60; HL-60, 72 h): 92%; Emax (K562; K562, 72 h): 96%; Emax (CCRF-CEM): 97%; Emax (MOLT-4; MOLT-4, 72 h): 98%; CC50 (HepG2; HepG2, 72 h): 57 µM; Emax (HepG2; HepG2, 72 h): 73%; CC50 (HS445): 67 µM; MI% (BxPC-3): 73%; CC50 (BxPC-3): 99 µM; CC50 (MCF-7): 5.87 µM; Emax (MCF-7): 94%; CC50 (MIA PaCa-2): 18 µM; MI% (MIA PaCa-2): 94%; CC50 (MV4-11): 1.03 µM; MI% (MV4-11): 100%; CC50 (Jurkat): 2.29 µM; MI% (Jurkat): 90%
4 | CC(C)OC(=O)[C@H](C)N[P@](=O)(CO[C@H](C)Cn1cnc2c(N)ncnc21)Oc1ccccc1 [TAF, Tenofovir Alafenamide] |  |  |  |  |  |  |  |  |  |  |  |  |  |  |  |  |  |  |  |  | Sp isomer fold more active than the Rp isomer [1]: 10 fold
5 | CC(C)OC(=O)[C@H](C)N[P@](=O)(OC[C@H]1O[C@@H](n2ccc(=O)[nH]c2=O)[C@](C)(F)[C@@H]1O)Oc1ccccc1 [sofosbuvir] |  |  |  |  |  |  |  |  |  |  |  |  |  |  |  |  |  |  |  |  | Sp isomer fold more active than the Rp isomer [1]: 18 fold
